biological target: T1, chimeric human H3 receptor (Homo sapiens, UniProt Q9Y5N1); experiment: Chimeric human H3 receptor screening GTP binding assay (inhibition of histamine-stimulated GTP-gamma35S binding, Example 8); format: biochemical; conditions: 1 h; assay described in Example 8; symbol "!" in column headed Ki; read-out: Ki ("!": percent inhibition of agonist-induced GTP-gammaS binding to H3)
T1 construct: rat Galpha-i2 (Gnai2, rat); made in house; host or cells: Sf9 insect cells (baculovirus); P2 membranes
T1 sequence (Q9Y5N1 with tags, fused parts or gaps): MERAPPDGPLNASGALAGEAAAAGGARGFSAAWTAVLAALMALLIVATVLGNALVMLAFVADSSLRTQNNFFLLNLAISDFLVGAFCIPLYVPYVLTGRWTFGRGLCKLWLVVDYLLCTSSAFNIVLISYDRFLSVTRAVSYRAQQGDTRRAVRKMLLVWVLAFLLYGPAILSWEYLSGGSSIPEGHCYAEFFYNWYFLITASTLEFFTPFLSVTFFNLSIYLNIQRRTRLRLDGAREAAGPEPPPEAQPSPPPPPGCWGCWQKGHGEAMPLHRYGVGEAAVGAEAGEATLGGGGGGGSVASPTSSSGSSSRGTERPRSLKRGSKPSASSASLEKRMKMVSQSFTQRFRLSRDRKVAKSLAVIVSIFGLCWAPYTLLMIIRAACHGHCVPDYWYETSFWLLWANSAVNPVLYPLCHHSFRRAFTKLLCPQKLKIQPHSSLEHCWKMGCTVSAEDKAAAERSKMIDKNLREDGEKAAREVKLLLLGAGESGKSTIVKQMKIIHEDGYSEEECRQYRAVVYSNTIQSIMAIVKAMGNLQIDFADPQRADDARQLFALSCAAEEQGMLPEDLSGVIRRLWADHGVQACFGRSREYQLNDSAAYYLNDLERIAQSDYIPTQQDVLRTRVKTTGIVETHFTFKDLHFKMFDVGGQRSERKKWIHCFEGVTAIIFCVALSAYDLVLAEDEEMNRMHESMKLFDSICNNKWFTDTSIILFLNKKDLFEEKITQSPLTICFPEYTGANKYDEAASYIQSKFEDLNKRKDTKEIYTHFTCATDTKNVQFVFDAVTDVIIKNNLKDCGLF
Outline: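 Compound tested at 4 μM against 1 μM histamine stimulation; 125 pM GTP-gamma35S binding measured by filtration and scintillation after 60 min at room temperature. Membranes from Sf9 cells expressing chimeric human H3 plus G-protein subunits, in Tris pH 7.4/NaCl/MgCl2/GDP buffer; values are % inhibition after nonspecific subtraction.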

Inhibition at 4 µM, ≥ 90%:
COc1cc(/C=C/C(=O)N2CCc3cnc(N4CCN(C5CCC5)CC4)nc3CC2)cc(OC)c1OC [Compound 566, 2-(4-cyclobutylpiperazin-1-yl)-7-[(2E)-3-(3,4,5-trimethoxyphenyl)prop-2-enoyl]-6,7,8,9-tetrahydro-5H-pyrimido[4,5-d]azepine]
CCCSc1ncccc1C(=O)N1CCc2cnc(N3CCN(C4CCC4)CC3)nc2CC1 [Compound 541, 2-(4-cyclobutylpiperazin-1-yl)-7-{[2-(propylthio)pyridin-3-yl]carbonyl}-6,7,8,9-tetrahydro-5H-pyrimido[4,5-d]azepine]
O=C(c1cc(C(F)(F)F)ccc1Cl)N1CCc2cnc(N3CCN(C4CCC4)CC3)nc2CC1 [Compound 438, 7-[2-chloro-5-(trifluoromethyl)benzoyl]-2-(4-cyclobutylpiperazin-1-yl)-6,7,8,9-tetrahydro-5H-pyrimido[4,5-d]azepine]
O=C(c1ccc(F)cc1F)N1CCc2cnc(N3CCN(C4CCC4)CC3)nc2CC1 [Compound 392, 2-(4-cyclobutylpiperazin-1-yl)-7-(2,4-difluorobenzoyl)-6,7,8,9-tetrahydro-5H-pyrimido[4,5-d]azepine]
COc1cccc(C(=O)N2CCc3cnc(N4CCN(C5CCC5)CC4)nc3CC2)c1OC [Compound 430, 2-(4-cyclobutylpiperazin-1-yl)-7-(2,3-dimethoxybenzoyl)-6,7,8,9-tetrahydro-5H-pyrimido[4,5-d]azepine]
Cc1nc(C)c(C(=O)N2CCc3cnc(N4CCN(C5CCC5)CC4)nc3CC2)s1 [Compound 525, 2-(4-cyclobutylpiperazin-1-yl)-7-[(2,4-dimethyl-1,3-thiazol-5-yl)carbonyl]-6,7,8,9-tetrahydro-5H-pyrimido[4,5-d]azepine]
O=C(c1ccccc1Cc1ccccc1)N1CCc2cnc(N3CCN(C4CCC4)CC3)nc2CC1 [Compound 410, 7-(2-benzylbenzoyl)-2-(4-cyclobutylpiperazin-1-yl)-6,7,8,9-tetrahydro-5H-pyrimido[4,5-d]azepine]
Cc1ccccc1/C=C/C(=O)N1CCc2cnc(N3CCN(C4CCC4)CC3)nc2CC1 [Compound 572, 2-(4-cyclobutylpiperazin-1-yl)-7-[(2E)-3-(2-methylphenyl)prop-2-enoyl]-6,7,8,9-tetrahydro-5H-pyrimido[4,5-d]azepine]
CCCn1c(C(=O)N2CCc3cnc(N4CCN(C5CCC5)CC4)nc3CC2)cc2ccccc21 [Compound 463, 2-(4-cyclobutylpiperazin-1-yl)-7-[(1-propyl-1H-indol-2-yl)carbonyl]-6,7,8,9-tetrahydro-5H-pyrimido[4,5-d]azepine]
Cc1cc(C(=O)N2CCc3cnc(N4CCN(C5CCC5)CC4)nc3CC2)c(C)o1 [Compound 465, 2-(4-cyclobutylpiperazin-1-yl)-7-(2,5-dimethyl-3-furoyl)-6,7,8,9-tetrahydro-5H-pyrimido[4,5-d]azepine]
CCCOc1ccccc1C(=O)N1CCc2cnc(N3CCN(C4CCC4)CC3)nc2CC1 [Compound 416, 2-(4-cyclobutylpiperazin-1-yl)-7-(2-propoxybenzoyl)-6,7,8,9-tetrahydro-5H-pyrimido[4,5-d]azepine]
O=C(c1ccnc(Cl)c1)N1CCc2cnc(N3CCN(C4CCC4)CC3)nc2CC1 [Compound 483, 7-(2-chloroisonicotinoyl)-2-(4-cyclobutylpiperazin-1-yl)-6,7,8,9-tetrahydro-5H-pyrimido[4,5-d]azepine]
O=C(Cc1ccc(OCc2ccccc2)cc1)N1CCc2cnc(N3CCN(C4CCC4)CC3)nc2CC1 [Compound 520, 7-{[4-(benzyloxy)phenyl]acetyl}-2-(4-cyclobutylpiperazin-1-yl)-6,7,8,9-tetrahydro-5H-pyrimido[4,5-d]azepine]

same assay, conditions: 1 h; assay of Example 8; symbol "!" in column headed Ki; read-out: percent inhibition of agonist-induced GTP-gammaS binding to H3

Inhibition at 4 µM, ≥ 90%:
O=C(Cc1cccc(C(F)(F)F)c1F)N1CCc2cnc(N3CCN(C4CCC4)CC3)nc2CC1 [Compound 292, 2-(4-cyclobutylpiperazin-1-yl)-7-{[2-fluoro-3-(trifluoromethyl)phenyl]acetyl}-6,7,8,9-tetrahydro-5H-pyrimido[4,5-d]azepine]
Cc1cc(Cl)ccc1OCC(=O)N1CCc2cnc(N3CCN(C4CCC4)CC3)nc2CC1 [Compound 328, 7-[(4-chloro-2-methylphenoxy)acetyl]-2-(4-cyclobutylpiperazin-1-yl)-6,7,8,9-tetrahydro-5H-pyrimido[4,5-d]azepine]
CC(CC(=O)N1CCc2cnc(N3CCN(C4CCC4)CC3)nc2CC1)Sc1ccc(Cl)cc1 (stereo not shown) [Compound 342, 7-{3-[(4-chlorophenyl)thio]butanoyl}-2-(4-cyclobutylpiperazin-1-yl)-6,7,8,9-tetrahydro-5H-pyrimido[4,5-d]azepine]
CCCC(C)C(=O)N1CCc2cnc(N3CCN(C4CCC4)CC3)nc2CC1 (stereo not shown) [Compound 224, 2-(4-cyclobutylpiperazin-1-yl)-7-(2-methylpentanoyl)-6,7,8,9-tetrahydro-5H-pyrimido[4,5-d]azepine]
N#Cc1ccc(C(=O)N2CCc3cnc(N4CCN(C5CCC5)CC4)nc3CC2)cc1 [Compound 268, 4-{[2-(4-cyclobutylpiperazin-1-yl)-5,6,8,9-tetrahydro-7H-pyrimido[4,5-d]azepin-7-yl]carbonyl}benzonitrile]
CC(C)C(C(=O)N1CCc2cnc(N3CCN(C4CCC4)CC3)nc2CC1)c1ccccc1 (stereo not shown) [Compound 349, 2-(4-cyclobutylpiperazin-1-yl)-7-(3-methyl-2-phenylbutanoyl)-6,7,8,9-tetrahydro-5H-pyrimido[4,5-d]azepine]
O=C(Cc1c(Cl)cccc1Cl)N1CCc2cnc(N3CCN(C4CCC4)CC3)nc2CC1 [Compound 303, 2-(4-cyclobutylpiperazin-1-yl)-7-[(2,6-dichlorophenyl)acetyl]-6,7,8,9-tetrahydro-5H-pyrimido[4,5-d]azepine]
O=C(Cc1ccccc1Br)N1CCc2cnc(N3CCN(C4CCC4)CC3)nc2CC1 [Compound 297, 7-[(2-bromophenyl)acetyl]-2-(4-cyclobutylpiperazin-1-yl)-6,7,8,9-tetrahydro-5H-pyrimido[4,5-d]azepine]
O=C(Cc1ccc(C(F)(F)F)cc1)N1CCc2cnc(N3CCN(C4CCC4)CC3)nc2CC1 [Compound 287, 2-(4-cyclobutylpiperazin-1-yl)-7-{[4-(trifluoromethyl)phenyl]acetyl}-6,7,8,9-tetrahydro-5H-pyrimido[4,5-d]azepine]
CCC(=O)N1CCc2cnc(N3CCN(C4CCC4)CC3)nc2CC1 [Compound 184, 2-(4-cyclobutylpiperazin-1-yl)-7-propionyl-6,7,8,9-tetrahydro-5H-pyrimido[4,5-d]azepine]

same assay, conditions: symbol ! in Ki; test compound 4 μM, 1 μM histamine; read-out: percent inhibition of agonist-induced GTP-gammaS binding to H3

Inhibition at 4 µM, ≥ 90%:
CC(C)CCC(=O)N1CCc2c(ncnc2N2CCN(C3CCC3)CC2)C1 [Compound 46, 4-(4-cyclobutylpiperazin-1-yl)-7-(4-methylpentanoyl)-5,6,7,8-tetrahydropyrido[3,4-d]pyrimidine]
Cc1cccc(CN2CCc3nc(N4CCN(C5CCC5)CC4)ncc3C2)n1 [Compound 619, 2-(4-cyclobutylpiperazin-1-yl)-6-[(6-methylpyridin-2-yl)methyl]-5,6,7,8-tetrahydropyrido[4,3-d]pyrimidine]
COc1ccc(CN2CCc3c(ncnc3N3CCN(C4CCC4)CC3)C2)c(OC)c1 [Compound 79, 4-(4-cyclobutylpiperazin-1-dimethoxybenzyl)-5,6,7,8-tetrahydropyrido[3,4-d]pyrimidine]
CCN(CC)CCCN1CCN(c2ncnc3c2CCN(Cc2ccccc2)C3)CC1 [Compound 20, 3-[4-(7-benzyl-5,6,7,8-tetrahydropyrido[3,4-d]pyrimidin-4-yl)piperazin-1-yl]-N,N-diethylpropan-1-amine]
CCC(CC)CN1CCc2nc(N3CCN(C4CCC4)CC3)ncc2C1 [Compound 633, 2-(4-cyclobutylpiperazin-1-yl)-6-(2-ethylbutyl)-5,6,7,8-tetrahydropyrido[4,3-d]pyrimidine]
COc1ccc(C(=O)N2CCc3c(ncnc3N3CCN(C4CCC4)CC3)C2)cc1 [Compound 27, 4-(4-cyclobutylpiperazin-1-yl)-7-(4-methoxybenzoyl)-5,6,7,8-tetrahydropyrido[3,4-d]pyrimidine]
CCCCCC(C)N1CCc2c(ncnc2N2CCN(C3CCC3)CC2)C1 (stereo not shown) [Compound 120, 4-(4-cyclobutylpiperazin-1-yl)-7-(1-methylhexyl)-5,6,7,8-tetrahydropyrido[3,4-d]pyrimidine]
CC(C)c1ccc(C(=O)N2CCc3c(ncnc3N3CCN(C4CCC4)CC3)C2)cc1 [Compound 41, 4-(4-cyclobutylpiperazin-1-yl)-7-(4-isopropylbenzoyl)-5,6,7,8-tetrahydropyrido[3,4-d]pyrimidine]
CCC(C)CN1CCc2nc(N3CCN(C4CCC4)CC3)ncc2C1 (stereo not shown) [Compound 632, 2-(4-cyclobutylpiperazin-1-yl)-6-(2-methylbutyl)-5,6,7,8-tetrahydropyrido[4,3-d]pyrimidine]
COCCOCC(=O)N1CCc2c(ncnc2N2CCN(C3CCC3)CC2)C1 [Compound 65, 4-(4-cyclobutylpiperazin-1-yl)-7-[(2-methoxyethoxy)acetyl]-5,6,7,8-tetrahydropyrido[3,4-d]pyrimidine]
c1ccc(CN2CCc3c(ncnc3N3CCC(N4CCCCC4)CC3)C2)cc1 [Compound 17, 1′-(7-benzyl-5,6,7,8-tetrahydropyrido[3,4-d]pyrimidin-4-yl)-1,4′-bipiperidine]

Source: patent US20080051387A1, “TETRAHYDROPYRIDO[3,4-D]PYRIMIDINES AND RELATED ANALOGUES” (priority 2006, published 2008)
